{"source": "patent US9694043B2", "about": "“Composition for preventing or treating hearing loss” (UNIVERSITY-INDUSTRY COOPERATION GROUP OF KYUNG HEE …, priority 2011, dated 2017)", "origin": "cited, not measured here", "key": {"[1]": {"tested_on": "animal model", "details": "high level of NAC"}, "[2]": {"tested_on": "soldiers", "details": "600 U.S. navy soldiers, NAC for 2 weeks during weapons training"}}}
{"smiles": "CC(=O)N[C@@H](CS)C(=O)O", "note": "[NAC, N-acetyl cysteine]", "values": [{"measurement": "Effect on noise-induced hearing loss in animal model", "setting": "[1]", "result": "preventive effects on noise-induced hearing loss but limited effects on permanent hearing loss"}, {"measurement": "Permanent hearing loss", "setting": "[2]", "result": "decrease in permanent hearing loss"}]}
